From PMC9942192 (ACS Synthetic Biology, 2023)

Biological target: T1, AtSWEET4 (Arabidopsis thaliana, UniProt Q944M5)
T1 sequence (Q944M5 1-251): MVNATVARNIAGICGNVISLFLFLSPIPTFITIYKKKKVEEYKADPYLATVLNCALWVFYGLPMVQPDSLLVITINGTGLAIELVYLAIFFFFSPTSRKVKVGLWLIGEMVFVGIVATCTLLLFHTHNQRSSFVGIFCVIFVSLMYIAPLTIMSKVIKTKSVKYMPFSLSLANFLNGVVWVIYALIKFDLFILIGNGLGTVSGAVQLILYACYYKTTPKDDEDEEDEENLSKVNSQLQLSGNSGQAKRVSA
Assay: […]-radiolabeled uptake in yeast EBY4000
Assay type: cell-based
Conditions: labelled compound; positive control; n = 3

Row | SMILES | uptake
1 | OCC1(O)OC[C@@H](O)[C@@H](O)[C@@H]1O (stereo partly drawn) [D-fructose] | D-mannose and D-fructose transporter AtSWEET4 serves as a positive control
2 | OC[C@H]1OC(O)[C@@H](O)[C@@H](O)[C@@H]1O (stereo partly drawn) [D-mannose] | D-mannose and D-fructose transporter AtSWEET4 serves as a positive control
